{
  "source": "patent US5078135A",
  "about": "“Apparatus for in vivo analysis of biological compounds in blood or tissue by microdialysis and mass spectrometry” (Board of Regents, The University of Texas System, priority 1989, dated 1992)",
  "key": {"[1]": {"assay": "in vivo pharmacokinetic analysis of free drug by microdialysis / CF-FAB mass spectrometry (jugular vein probe, rat)", "parameters": "species or system Sprague Dawley male rat", "conditions": "330 gram rat, 15 milligrams sodium penicillin G in 0.3 milliliters saline, injected", "from_the_text": "Referring to FIG. 1, the present invention applied to detect drug and metabolite levels in a rat is disclosed. It should be emphasized that the present apparatus and method can be applied to other animals, including humans. Microdialysis probe 11 is inserted inside a 22-gauge needle cannula (not shown) surgically placed in the jugular vein of a 330 gram Sprague Dawley male rat 12. A microliter syringe pump 13 is connected to microdialysis probe 11 by tube 14 and is used to controllably provide perfusate to microdialysis probe 11 through tube 14. Syringe pump 13 can be a Model 2274 pump available from the Harvard Apparatus Co., of Milford, Mass. In the preferred embodiment, the perfusate is 95% water and 5% glycerol provided at a rate of 4.8+/-0.2 microliters per minute.\nThe dialysate output from microdialysis probe 11 is connected through tube 16 to injection switch valve 17 which can be, for example, a Rheodyne Model 7410 injection switch valve. During collection, injection switch valve 17 is positioned so that dialysate passing through tube 16 passes through 20 microliter collection loop 18. […]\nA 330 gram rat was injected with a dose of 15 milligrams of sodium penicillin G dissolved in 0.3 milliliters of physiological saline solution. Negative ions were recorded in the mass spectrometric analysis of the dialysate in order to obtain maximum sensitivity. […]"}, "[2]": {"conditions": "intramuscular administration; broken curve 43 in FIG. 4; cited from earlier work"}},
  "data": [
    {"smiles": "CC1(C)S[C@@H]2[C@H](NC(=O)Cc3ccccc3)C(=O)N2[C@H]1C(=O)O", "note": "[sodium penicillin G]", "values": [
      {"measurement": "peak concentration of free drug (non-protein bound)", "setting": "[1]", "value": "approximately 24 micrograms per milliliter"},
      {"measurement": "time of peak concentration of free drug", "setting": "[1]", "value": "about 30 minutes"},
      {"measurement": "time to peak, published data", "setting": "[2]", "value": "26 to 30", "unit": "min"}
    ]}
  ]
}
